{"source": "patent US12077503B2", "about": "“Substituted cyclic amides and their use as herbicides” (FMC CORPORATION, priority 2015, dated 2024)", "type_in_all_cases": "in vivo", "key": {"[1]": {"test_system": "ryegrass, Italian (Italian ryegrass, Lolium multiflorum)", "test": "Test A preemergence", "details": "Preemergence, 1000 g ai/ha; 0 is no effect, 100 is complete control", "how_it_was_run": "(§1)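 In a loam soil and sand blend, planted seeds got a preemergence directed soil spray, and young plants at the one- to two-leaf stage, 2–10 cm high, got a postemergence application; ~10 d greenhouse hold; injury rated visually, 0 = none, 100 = complete control.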"}, "Kochia (Kochia scoparia) [2]": {"test_system": "Kochia (Kochia scoparia)", "test": "Test A preemergence", "details": "Preemergence, 1000 g ai/ha; 0 is no effect, 100 is complete control", "how_it_was_run": "as §1"}, "[3]": {"test_system": "pigweed (Amaranthus retroflexus)", "test": "Test A preemergence", "details": "Preemergence, 1000 g ai/ha; 0 is no effect, 100 is complete control"}, "[4]": {"test_system": "barnyardgrass (Echinochloa crus-galli)", "test": "Test A preemergence", "details": "Preemergence, 1000 g ai/ha; 0 is no effect, 100 is complete control", "how_it_was_run": "as §1"}, "[5]": {"test_system": "giant foxtail (Setaria faberii)", "test": "Test A preemergence", "details": "Preemergence, 1000 g ai/ha; 0 is no effect, 100 is complete control", "how_it_was_run": "as §1"}, "[6]": {"test_system": "ragweed (common ragweed, Ambrosia elatior)", "test": "Test A preemergence", "details": "Preemergence, 1000 g ai/ha; 0 is no effect, 100 is complete control", "how_it_was_run": "as §1"}, "[7]": {"test_system": "wheat (Triticum aestivum)", "test": "Test A postemergence", "details": "Triticum aestivum, post-emergence, 240 h, 1000 g ai/ha, postemergence; 0 to 100 scale, 0 no effect, 100 complete control; read-out: Plant response rating, Wheat", "how_it_was_run": "as §1"}, "[8]": {"test_system": "morningglory (Ipomoea spp.)", "test": "Test A postemergence", "details": "Ipomoea, post-emergence, 240 h; 1000 g ai/ha, postemergence; 0 to 100 scale, 0 no effect, 100 complete control; read-out: Plant response rating, Morningglory", "how_it_was_run": "as §1"}, "[9]": {"test_system": "ryegrass, Italian (Italian ryegrass, Lolium multiflorum)", "test": "Test A postemergence", "details": "Lolium multiflorum, post-emergence, 240 h, 1000 g ai/ha, postemergence; 0 to 100 scale, 0 no effect, 100 complete control; read-out: Plant response rating, Ryegrass, Italian", "how_it_was_run": "as §1"}, "Kochia (Kochia scoparia) [10]": {"test_system": "Kochia (Kochia scoparia)", "test": "Test A postemergence", "details": "Bassia scoparia, post-emergence, 240 h, 1000 g ai/ha, postemergence; 0 to 100 scale, 0 no effect, 100 complete control; read-out: Plant response rating, Kochia", "how_it_was_run": "as §1"}, "[11]": {"test_system": "pigweed (Amaranthus retroflexus)", "test": "Test A postemergence", "details": "Amaranthus retroflexus, post-emergence, 240 h, 1000 g ai/ha, postemergence; 0 to 100 scale, 0 no effect, 100 complete control; read-out: Plant response rating, Pigweed", "how_it_was_run": "as §1"}, "[12]": {"test_system": "barnyardgrass (Echinochloa crus-galli)", "test": "Test A postemergence", "details": "Echinochloa crus-galli, post-emergence, 240 h, 1000 g ai/ha, postemergence; 0 to 100 scale, 0 no effect, 100 complete control; read-out: Plant response rating, Barnyardgrass", "how_it_was_run": "as §1"}, "[13]": {"test_system": "blackgrass (Alopecurus myosuroides)", "test": "Test A postemergence", "details": "Alopecurus myosuroides, post-emergence, 240 h, 1000 g ai/ha, postemergence; 0 to 100 scale, 0 no effect, 100 complete control; read-out: Plant response rating, Blackgrass", "how_it_was_run": "as §1"}, "[14]": {"test_system": "giant foxtail (Setaria faberii)", "test": "Test A postemergence", "details": "Setaria faberi, post-emergence, 240 h, 1000 g ai/ha, postemergence; 0 to 100 scale, 0 no effect, 100 complete control; read-out: Plant response rating, Foxtail, Giant", "how_it_was_run": "as §1"}, "[15]": {"test_system": "ragweed (common ragweed, Ambrosia elatior)", "test": "Test A postemergence", "details": "Ambrosia artemisiifolia, post-emergence, 240 h, 1000 g ai/ha, postemergence; 0 to 100 scale, 0 no effect, 100 complete control; read-out: Plant response rating, Ragweed", "how_it_was_run": "as §1"}, "[16]": {"test_system": "Galium (catchweed bedstraw, Galium aparine)", "test": "Test A postemergence", "details": "Galium, post-emergence, 240 h, 1000 g ai/ha, postemergence; 0 to 100 scale, 0 no effect, 100 complete control; read-out: Plant response rating, Galium", "how_it_was_run": "as §1"}, "corn (Zea mays)": {"test_system": "corn (Zea mays)", "test": "Test A postemergence", "details": "Zea mays, post-emergence, 240 h, 1000 g ai/ha, postemergence; 0 to 100 scale, 0 no effect, 100 complete control", "how_it_was_run": "as §1"}}}
{"smiles": "O=C(CN1C[C@H](c2cc(F)cc(F)c2)[C@@H](C(=O)Nc2cccc(F)c2F)C1=O)c1ccccc1", "note": "[Compound 784]", "values": [{"measurement": "Ryegrass, Italian plant response rating (0 to 100 scale)", "setting": "[1]", "result": 0}, {"measurement": "Kochia plant response rating (0 to 100 scale)", "setting": "Kochia (Kochia scoparia) [2]", "result": 0}, {"measurement": "Pigweed plant response rating (0 to 100 scale)", "setting": "[3]", "result": 0}, {"measurement": "Barnyardgrass plant response rating (0 to 100 scale)", "setting": "[4]", "result": 80}, {"measurement": "Foxtail, Giant plant response rating (0 to 100 scale)", "setting": "[5]", "result": 90}, {"measurement": "Ragweed plant response rating (0 to 100 scale)", "setting": "[6]", "result": 0}, {"measurement": "plant injury at 1000 g/ha", "setting": "[7]", "result": 0, "unit": "%"}, {"measurement": "pest or weed control at 1000 g/ha", "setting": "[8]", "result": 0, "unit": "%"}, {"measurement": "pest or weed control at 1000 g/ha", "setting": "[9]", "result": 0, "unit": "%"}, {"measurement": "pest or weed control at 1000 g/ha", "setting": "Kochia (Kochia scoparia) [10]", "result": 0, "unit": "%"}, {"measurement": "pest or weed control at 1000 g/ha", "setting": "[11]", "result": 0, "unit": "%"}, {"measurement": "pest or weed control at 1000 g/ha", "setting": "[12]", "result": 90, "unit": "%"}, {"measurement": "pest or weed control at 1000 g/ha", "setting": "[13]", "result": 20, "unit": "%"}, {"measurement": "pest or weed control at 1000 g/ha", "setting": "[14]", "result": 90, "unit": "%"}, {"measurement": "pest or weed control at 1000 g/ha", "setting": "[15]", "result": 0, "unit": "%"}, {"measurement": "pest or weed control at 1000 g/ha", "setting": "[16]", "result": 0, "unit": "%"}, {"measurement": "Corn plant response rating (crop injury, 0 = no effect, 100 = complete kill) at 1000 g/ha", "setting": "corn (Zea mays)", "result": 0, "unit": "%"}]}
